Assay results taken from patent US9593305B2, “Differentiation of pluripotent stem cells” (Janssen Biotech, Inc., priority 2008, dated 2017).

System: H1 human embryonic stem cells
Assay: Step-wise differentiation, high content analysis of SOX17, cell number, insulin, glucagon (Example 16)
Type: cell-based
Procedure: The assay was initiated by aspirating the culture medium from each well and adding back an aliquot (0.5 ml) of test medium. Test conditions for the first step of differentiation were conducted over a three-day period, feeding daily by aspirating and replacing the medium from each well with fresh test medium. On the first day of assay, 100 ng/ml activin A (PeproTech; Cat #120-14) or 100 ng/ml GDF-8 (R&D Systems, Cat #788-G8) was added to respective assay wells where each growth factor was diluted into RPMI-1640 medium (Invitrogen; Cat #: 22400) with 2% Albumin Bovine Fraction V, Fatty Acid Free (FAF BSA) (Proliant Inc. Cat #: SKU 68700), and 20 ng/ml Wnt3a (R&D Systems; Cat #1324-WN/CF). On the second day of assay, 100 ng/ml activin A or 100 ng/ml GDF-8 was diluted into RPMI-1640 medium supplemented with 2% FAF BSA without Wnt3a. In some test samples using GDF-8, Wnt3a was replaced with a small molecule compound, added only on the first day of definitive endoderm differentiation. These small molecules included Compound 19 (2.5 μM in assay), Compound 202 (2.5 μM in assay), Compound 40 (2.5 μM in assay), or a commercially available GSK3 inhibitor BIO (0.5 μM in assay) (EMD Chemicals, Inc.; Cat #361550). At the conclusion of the first step of differentiation, cells from some wells were harvested for flow cytometry analysis to evaluate levels of CXCR4, a marker of definitive endoderm formation. Additional wells were harvested for RT-PCR analysis to measure other markers of differentiation.
Step 5 of the differentiation protocol was carried out over seven days in DMEM-high glucose with 0.1% Albumax, 0.5× Insulin-Transferrin-Selenium, and 1 μM Alk 5 inhibitor. […]
Imaging was performed using an IN Cell Analyzer 1000 (GE Healthcare) utilizing the 51008bs dichroic for cells stained with Hoechst 33342 and Alexa Fluor 488. […] Segmentation for the nuclei was determined based on gray-scale levels (baseline range 100-300) and nuclear size. Averages and standard deviations were calculated for each replicate data set. […]

Structure (SMILES)	cell numbers and SOX17 expression after step 1 (100 ng/ml GDF-8 with 2.5 μM compound on first day)	relative cell numbers recovered through differentiation step 5 (GDF-8 with compound in step 1, relative to activin A and Wnt3a)
C=CCN1CC(=O)NCCCc2cncc(c2)-c2ncnc(n2)Nc2cccc(c2)C1 [Compound 40, 14-Prop-2-en-1-yl-3,5,7,14,17,23,27-heptaazatetracyclo[19.3.1.1˜2.6˜0.1˜8,12˜]heptacosa-1(25), 2(27), 3,5,8(26), 9,11,21,23-nonaen-16-one]	cell numbers in culture and SOX17 expression equivalent to treatment with activin A and Wnt3a	
CN1CCC(=O)NCCCc2cncc(c2)-c2ncnc(n2)Nc2cccc(c2)C1 [Compound 19, 14-Methyl-3,5,7,14,18,24,28-heptaazatetracyclo[20.3.1.1˜2,6˜0.1˜8,12˜]octacosa-1(26), 2(28), 3,5,8(27), 9,11,22,24-nonaen-17-one]		decrease in cell number
